Test [1] is described as follows: Luminescence Cell-Based Dose Response to Identify Activators of 5'UTR Stem-Loop Driven Prion Protein mRNA Translation in H4-C Neuroglioblastoma Cells. [Related pubchem assays: 1829 (Project Summary), 1814 (Primary HTS)]. It counts as functional.
Test [2] is described as follows: Luminescence Cell-Based Dose Response HTS to Identify Activators of Luciferase Translation or Activity in H4 […] Cells. [Related pubchem assays: 1829 (Project Summary), 1814 (Primary HTS)]. Format: functional.
The next test deals with H4. Nature of the test: Luminescence Cell-Based Dose Response HTS to Identify Activators of 5'UTR Stem-Loop Driven Prion Protein mRNA Translation in H4 Neuroglioblastoma Cells. [Related pubchem assays: 1829 (Project Summary), 1814 (Primary HTS)]. Format: functional. Conditions: Homo sapiens.
Test [3] is described as follows: Luminescence Cell-Based Dose Response to Identify Activators of Luciferase Translation or Activity in H4-C Neuroglioblastoma Cells. [Related pubchem assays: 1829 (Project Summary), 1814 (Primary HTS)]. It counts as functional.
Test [4] is described as follows: cytotoxicity in HPDE-C7 cells, cell-based, fluorescence, HTS (AID 430). Format: functional. To be noted: Homo sapiens.
Test [5] in a line: cytotoxicity in KRAS-transformed pancreatic duct cells, primary screen, cell-based, fluorescence, HTS (AID 431).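 Also: cell line used: HPDE-C7K.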 Format: functional. To be noted: Homo sapiens.
The nature of test [6]: Luminescence Cell-Based Dose Confirmation to Identify Activators of 5'UTR Stem-Loop Driven Alpha-Synuclein mRNA Translation in H4 Neuroglioblastoma Cells. [Related pubchem assays: 1829 (Project Summary), 1814 (Primary HTS)]. It counts as functional.
A further test deals with T1, Caspase-3 (Homo sapiens, UniProt P42574).
T1 sequence (P42574 whole entry): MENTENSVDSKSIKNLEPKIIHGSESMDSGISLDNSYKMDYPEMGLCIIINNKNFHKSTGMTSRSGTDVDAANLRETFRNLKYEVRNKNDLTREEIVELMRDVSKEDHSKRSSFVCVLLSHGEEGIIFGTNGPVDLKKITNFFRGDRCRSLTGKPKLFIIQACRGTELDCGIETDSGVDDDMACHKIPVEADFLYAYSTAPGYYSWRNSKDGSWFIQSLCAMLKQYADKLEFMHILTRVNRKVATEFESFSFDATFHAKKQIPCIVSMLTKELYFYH
It counts as functional.

Test [7] has as its target T2, Sentrin-specific protease 7 (Homo sapiens, UniProt Q9BQF6).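 Also: Luminescence-based dose-response confirmation of ultra-high-throughput screening hits, measuring inhibition of SENP7.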
T2 sequence (Q9BQF6 whole entry): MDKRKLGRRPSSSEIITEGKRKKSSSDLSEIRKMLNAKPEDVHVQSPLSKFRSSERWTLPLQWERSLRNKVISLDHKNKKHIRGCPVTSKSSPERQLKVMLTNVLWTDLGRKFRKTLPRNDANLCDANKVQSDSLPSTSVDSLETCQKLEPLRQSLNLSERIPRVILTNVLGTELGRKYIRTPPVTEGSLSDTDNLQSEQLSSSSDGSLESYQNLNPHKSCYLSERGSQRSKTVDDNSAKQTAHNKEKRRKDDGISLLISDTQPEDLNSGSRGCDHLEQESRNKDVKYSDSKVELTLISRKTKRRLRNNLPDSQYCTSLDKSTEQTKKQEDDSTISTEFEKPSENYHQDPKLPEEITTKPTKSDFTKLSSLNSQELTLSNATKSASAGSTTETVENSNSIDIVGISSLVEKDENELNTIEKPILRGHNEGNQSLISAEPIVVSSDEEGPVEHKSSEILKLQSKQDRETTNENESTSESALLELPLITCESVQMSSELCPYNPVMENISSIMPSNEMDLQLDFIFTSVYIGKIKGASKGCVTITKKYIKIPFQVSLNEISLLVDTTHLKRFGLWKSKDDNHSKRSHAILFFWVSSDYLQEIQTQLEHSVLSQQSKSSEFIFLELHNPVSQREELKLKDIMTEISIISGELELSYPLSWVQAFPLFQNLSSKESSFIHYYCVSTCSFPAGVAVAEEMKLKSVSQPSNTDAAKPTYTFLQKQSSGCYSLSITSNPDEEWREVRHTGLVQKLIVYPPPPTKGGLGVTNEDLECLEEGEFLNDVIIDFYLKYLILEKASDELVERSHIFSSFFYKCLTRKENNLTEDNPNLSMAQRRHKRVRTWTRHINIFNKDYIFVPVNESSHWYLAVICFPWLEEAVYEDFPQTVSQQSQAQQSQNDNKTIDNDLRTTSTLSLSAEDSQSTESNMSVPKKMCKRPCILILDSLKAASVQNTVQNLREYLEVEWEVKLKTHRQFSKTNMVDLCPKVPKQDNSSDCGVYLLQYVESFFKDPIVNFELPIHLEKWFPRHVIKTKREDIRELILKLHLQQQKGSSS
It counts as functional.

Test [8] concerns the target T3, Sentrin-specific protease 6 (Homo sapiens, UniProt Q9GZR1).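 Also: Luminescence-based dose-response confirmatory assay of SENP6 inhibition, following up an ultra-high-throughput screen.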
T3 sequence (Q9GZR1 whole entry): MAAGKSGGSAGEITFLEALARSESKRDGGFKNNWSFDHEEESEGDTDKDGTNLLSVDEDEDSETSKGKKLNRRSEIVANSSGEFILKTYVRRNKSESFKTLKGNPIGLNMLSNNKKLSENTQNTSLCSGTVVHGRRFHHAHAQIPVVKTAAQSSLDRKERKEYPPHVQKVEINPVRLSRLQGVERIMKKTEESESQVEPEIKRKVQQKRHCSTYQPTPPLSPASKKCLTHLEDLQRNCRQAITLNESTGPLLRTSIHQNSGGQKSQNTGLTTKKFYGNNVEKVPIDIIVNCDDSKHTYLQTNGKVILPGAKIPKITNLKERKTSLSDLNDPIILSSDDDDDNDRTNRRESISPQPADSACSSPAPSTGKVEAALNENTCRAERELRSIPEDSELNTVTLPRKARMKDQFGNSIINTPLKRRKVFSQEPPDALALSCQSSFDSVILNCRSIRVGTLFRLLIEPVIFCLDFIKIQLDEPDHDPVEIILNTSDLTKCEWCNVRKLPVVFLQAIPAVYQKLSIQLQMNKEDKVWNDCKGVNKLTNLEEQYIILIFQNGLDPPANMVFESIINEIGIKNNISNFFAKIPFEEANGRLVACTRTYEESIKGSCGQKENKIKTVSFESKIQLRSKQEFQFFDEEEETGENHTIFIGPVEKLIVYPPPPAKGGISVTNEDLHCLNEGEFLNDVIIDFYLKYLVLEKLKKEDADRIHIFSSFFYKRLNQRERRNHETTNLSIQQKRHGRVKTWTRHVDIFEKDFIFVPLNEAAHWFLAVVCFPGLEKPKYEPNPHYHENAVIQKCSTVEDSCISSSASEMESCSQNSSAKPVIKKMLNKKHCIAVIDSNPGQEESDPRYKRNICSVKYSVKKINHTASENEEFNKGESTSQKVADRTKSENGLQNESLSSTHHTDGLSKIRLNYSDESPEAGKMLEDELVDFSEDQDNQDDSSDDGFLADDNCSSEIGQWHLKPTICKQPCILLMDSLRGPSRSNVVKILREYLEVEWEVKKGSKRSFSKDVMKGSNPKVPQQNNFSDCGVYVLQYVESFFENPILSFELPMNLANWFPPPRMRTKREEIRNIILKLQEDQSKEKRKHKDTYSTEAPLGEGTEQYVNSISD
It counts as functional.

For test [9], the target named is T4, Sentrin-specific protease 8 (Homo sapiens, UniProt Q96LD8).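 Also: luminescence read-out of SENP8 inhibition, dose-response confirmation following an ultra-high-throughput screen.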
T4 sequence (Q96LD8 whole entry): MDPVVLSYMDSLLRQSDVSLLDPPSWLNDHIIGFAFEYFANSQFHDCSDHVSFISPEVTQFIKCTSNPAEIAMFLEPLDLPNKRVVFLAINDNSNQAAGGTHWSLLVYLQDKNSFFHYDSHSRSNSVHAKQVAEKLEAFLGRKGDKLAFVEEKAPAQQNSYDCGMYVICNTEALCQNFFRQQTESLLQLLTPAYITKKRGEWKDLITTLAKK
It counts as functional.

Test [10] has as its target Disintegrin and metalloproteinase domain-containing protein 17 (Homo sapiens, UniProt P78536). Nature of the test: exosite inhibitors of ADAM17, dose response, biochemical (AID 743260).
Test [11] is described as follows: HEp-2 cell cytotoxicity, dose response, cytotoxicity control for RSV inhibitor project, HTS (AID 2410). Conditions: human respiratory syncytial virus. It counts as functional.
Test [12] is described as follows: inhibitors of intracellular T. cruzi replication, confirmation, NIH3T3 host cells, beta-gal luminescence (AID 2044).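 Also: intracellular parasites grown in NIH/3T3 mouse fibroblasts as host cells; luminescent beta-galactosidase reporter signal from transgenic T. cruzi replicating inside host cells; inhibitors lower the luminescence signal.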 Format: functional, cell-based.
Test [13] is described as follows: cytotoxicity toward NIH3T3 fibroblasts, dose response, counter-screen, cell-based, ATP luminescence, mouse fibroblasts (AID 2010).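 Also: cells exposed to compound for about 90 hours before reading.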 Format: functional.
The nature of test [14]: cells.
The nature of test [15]: M. tuberculosis H37Rv growth inhibitors, H37Rv strain (AID 1626). Format: functional.
Test [16] deals with Lysosomal acid glucosylceramidase (Homo sapiens, UniProt P04062). Description: Dose response cell-based high throughput screening assay to identify enhancers of beta-glucosidase activity. [Related pubchem assays: 784 ]. Format: functional.
Lysosomal acid glucosylceramidase, sequence (P04062 whole entry): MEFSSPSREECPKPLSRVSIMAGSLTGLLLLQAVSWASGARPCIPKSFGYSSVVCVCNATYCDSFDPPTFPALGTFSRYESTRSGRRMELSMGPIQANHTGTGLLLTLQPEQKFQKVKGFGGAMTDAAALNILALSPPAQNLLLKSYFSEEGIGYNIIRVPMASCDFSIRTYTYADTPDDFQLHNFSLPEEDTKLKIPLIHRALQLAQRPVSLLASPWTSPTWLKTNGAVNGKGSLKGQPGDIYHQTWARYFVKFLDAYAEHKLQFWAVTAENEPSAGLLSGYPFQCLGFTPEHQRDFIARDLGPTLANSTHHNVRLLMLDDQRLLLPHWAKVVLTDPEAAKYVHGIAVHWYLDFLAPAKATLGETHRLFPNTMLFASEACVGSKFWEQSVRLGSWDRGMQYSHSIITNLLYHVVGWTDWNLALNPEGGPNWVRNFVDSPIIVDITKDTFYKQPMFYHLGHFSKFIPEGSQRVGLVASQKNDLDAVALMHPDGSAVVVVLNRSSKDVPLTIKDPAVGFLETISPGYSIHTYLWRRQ
Test [17] has as its system BJ. Description: cytotoxicity toward BJ-TERT fibroblasts, dose response, cell-based, RAS-independent, luminescence (AID 1933). To be noted: Homo sapiens. Format: functional.
Test [18] has as its system BJ. Nature of the test: cells. Format: functional, cell-based. Conditions: Homo sapiens.
Test [19] deals with BJ. Description: cytotoxicity toward BJ-TERT-LT-ST fibroblasts, dose response, cell-based, RAS-independent, luminescence (AID 1935).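 Also: BJ fibroblasts immortalized with TERT plus LT and ST oncogenes.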 It counts as functional. Conditions: Homo sapiens.
The nature of test [20]: cytotoxicity toward DRD oncogenic fibroblasts, dose response, cell-based, non-viral oncogenic, luminescence (AID 1934). It counts as functional. To be noted: Homo sapiens.
Test [21] deals with Vero. Description: cells. It counts as functional, cell-based. Conditions: Chlorocebus sabaeus.
For test [22], the system named is Vero. Nature of the test: cells. It counts as functional. Conditions: Chlorocebus sabaeus.
For another test, the target named is T5, Protein skinhead-1 (Caenorhabditis elegans, UniProt P34707).
T5 sequence (P34707 whole entry): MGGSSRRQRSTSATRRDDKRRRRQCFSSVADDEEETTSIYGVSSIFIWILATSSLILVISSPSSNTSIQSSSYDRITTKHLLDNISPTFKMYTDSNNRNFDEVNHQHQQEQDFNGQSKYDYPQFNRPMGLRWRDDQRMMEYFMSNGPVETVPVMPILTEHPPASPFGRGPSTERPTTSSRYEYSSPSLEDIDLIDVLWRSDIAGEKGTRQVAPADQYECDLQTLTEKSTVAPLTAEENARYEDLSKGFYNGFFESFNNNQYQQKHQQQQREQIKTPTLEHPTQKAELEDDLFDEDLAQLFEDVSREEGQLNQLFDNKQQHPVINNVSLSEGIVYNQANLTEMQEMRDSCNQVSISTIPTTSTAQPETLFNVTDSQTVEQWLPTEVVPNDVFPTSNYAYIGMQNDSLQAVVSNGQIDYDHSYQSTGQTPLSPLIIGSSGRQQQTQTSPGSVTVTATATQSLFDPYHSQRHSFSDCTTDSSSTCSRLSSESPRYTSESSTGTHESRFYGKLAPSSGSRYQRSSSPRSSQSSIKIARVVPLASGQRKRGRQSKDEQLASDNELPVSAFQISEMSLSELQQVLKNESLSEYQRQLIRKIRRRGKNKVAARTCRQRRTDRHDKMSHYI
Format: functional.

The target of test [23] is T6, Oxysterols receptor LXR-beta (Homo sapiens, UniProt P55055).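 Also: Cell-based luminescence dose-response assay of agonist activity at LXR, run as a confirmatory counterscreen to a daf-12 agonist screen; HEK293 cells with Gal4-LXR fusion and GAL4-driven luciferase reporter; agonist potency from rising luciferase signal of a Gal4-LXR reporter.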
T6 sequence (P55055 whole entry): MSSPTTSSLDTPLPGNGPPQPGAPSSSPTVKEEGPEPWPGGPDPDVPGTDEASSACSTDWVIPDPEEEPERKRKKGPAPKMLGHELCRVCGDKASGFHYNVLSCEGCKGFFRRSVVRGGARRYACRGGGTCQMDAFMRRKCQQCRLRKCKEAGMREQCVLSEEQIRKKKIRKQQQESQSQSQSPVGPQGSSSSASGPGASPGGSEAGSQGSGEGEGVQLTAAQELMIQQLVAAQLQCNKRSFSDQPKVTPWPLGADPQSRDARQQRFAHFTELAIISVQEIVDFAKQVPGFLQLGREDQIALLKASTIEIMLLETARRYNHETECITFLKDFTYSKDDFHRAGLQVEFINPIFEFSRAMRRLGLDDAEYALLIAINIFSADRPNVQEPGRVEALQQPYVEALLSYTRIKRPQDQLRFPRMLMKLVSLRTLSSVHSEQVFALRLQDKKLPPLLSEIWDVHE
Format: functional, cell-based.

Test [24] is described as follows: cells. This is another data set of the same source.

The source made the active and inactive calls. Where only a bound is given, the exact number is not on record here.

Disintegrin and metalloproteinase domain-containing protein 17, sequence (P78536 whole entry, the tested form may be a part): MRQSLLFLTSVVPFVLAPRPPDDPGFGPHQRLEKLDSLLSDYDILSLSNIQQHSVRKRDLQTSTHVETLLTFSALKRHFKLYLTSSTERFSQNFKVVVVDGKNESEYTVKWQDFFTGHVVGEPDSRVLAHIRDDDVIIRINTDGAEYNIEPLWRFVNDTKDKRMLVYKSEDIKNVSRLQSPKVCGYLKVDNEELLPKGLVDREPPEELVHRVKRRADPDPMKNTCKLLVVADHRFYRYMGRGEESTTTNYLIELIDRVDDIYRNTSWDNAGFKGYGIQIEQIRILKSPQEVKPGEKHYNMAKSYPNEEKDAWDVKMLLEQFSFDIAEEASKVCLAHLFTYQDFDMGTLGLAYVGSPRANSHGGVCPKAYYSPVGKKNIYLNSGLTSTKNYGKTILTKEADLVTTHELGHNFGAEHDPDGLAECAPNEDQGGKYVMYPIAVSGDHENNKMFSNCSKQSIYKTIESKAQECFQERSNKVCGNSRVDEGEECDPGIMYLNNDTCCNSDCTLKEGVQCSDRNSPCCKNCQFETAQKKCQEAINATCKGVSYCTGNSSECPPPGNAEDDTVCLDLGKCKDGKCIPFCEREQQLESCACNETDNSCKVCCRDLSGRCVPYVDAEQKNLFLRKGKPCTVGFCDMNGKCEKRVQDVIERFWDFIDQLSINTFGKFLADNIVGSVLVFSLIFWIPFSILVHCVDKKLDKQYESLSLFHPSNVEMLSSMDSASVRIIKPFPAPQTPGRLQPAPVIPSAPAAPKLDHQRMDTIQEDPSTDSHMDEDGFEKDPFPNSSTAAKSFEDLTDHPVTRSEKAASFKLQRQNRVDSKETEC

As for `CC(C)(C)c1ccc(OCc2nc(-c3ccccn3)no2)c(Br)c1`, the EC50 is 0.683 µM (active) in test [1]; < 0.1 µM (active) in [2]; < 0.1 µM (active) in the test on H4; 0.91 µM (active) in test [3]; 11.5 µM (active) in test [4]; 11.9 µM (active) in test [5]. Moreover, the EC50 in [6] is 0.114 µM (active). Also, the IC50 at Caspase-3 is 33.8 µM (active); in [7], 5.88 µM (active); in test [8], 17.6 µM (active); in test [9], 13.5 µM (active); in [10], > 69.5 µM (inactive).
Take `COC(=O)c1cc(NC(=O)CC2S/C(=N/c3ccccc3)N(CCc3c[nH]c4ccccc34)C2=O)cc(C(=O)OC)c1` (stereo unspecified): the CC50 in [11] was > 50 µM (active). The figures for the EC50 in test [12] and in test [13] were 1.11 µM (active) and > 60 µM (inconclusive), respectively. Also, in “cells [14]”, the half-maximal inhibitory concentration (IC50) is 41.7 µM (active).
Turning to `CCOc1ccc2nc(NC(=O)CSC3=NCCS3)sc2c1`, the IC50 in test [15] is > 100 µM (active).
For the compound `Sc1nnc(Cc2ccccc2)n1Cc1ccco1`, the EC50 in test [16] was > 50 µM (not active).
Turning to `COc1cc(NC(=S)NC(=O)c2ccc(C(C)(C)C)cc2)ccc1NC(=O)c1cccs1`, the values for the CC50 (in [11]; in the test with Vero [22]) were 18.9 µM (active) and > 25 µM (active), respectively. Moreover, the EC50 in the test on BJ [17] is 60.4 µM (active); with BJ [18], 32.9 µM (inconclusive); in the test with BJ [19] it was > 150 µM (inconclusive); in test [20], 72.6 µM (active). In addition, the IC50 was 2.5 µM (active) with Vero [21] and 8.44 µM (active) in the test “cells [14]”.
On to `Cc1ccc(N/C=C(/C(=O)c2ccco2)C(=O)C(F)(F)F)cc1Cl`, for which the figures for the IC50 (in test [15]; at Protein skinhead-1) were > 100 µM (active) and 27.2 µM (active), respectively. Further, the EC50 (in test [23]; in the test “cells [24]”) was > 67.5 µM (inactive) throughout.
On to `O=C(CCS(=O)(=O)c1cccc2nonc12)N1CCCc2ccccc21`, for which, in [16], the EC50 is > 50 µM (not active).

For the origin of these results see ChEMBL document CHEMBL1201862, “PubChem BioAssay data set” (2004).
